How the values were obtained:
[1] = test system: MDA-MB-231 breast cancer cells; test: Cell apoptosis, Annexin V and PI double staining, MDA-MB-231; assay type: cell-based
Method: (§1) After the cells treated with TRAIL and its variant were digested with trypsin, they were removed from the cultivation plate, washed twice with phosphate buffer solution, and centrifuged for 5 min at 300 g centrifugal force. The supernatants were removed, and the cells were re-suspended in 100 ul of binding buffer solution. Then, Annexin V-FITC (BD Pharmgen) was added until a final concentration of 2 μg/ml was achieved, followed by incubation at room temperature. After 10 min, 400 ul of binding buffer was added, and the cells were transferred to a flow analysis tube. 1 μg of […] (Sigma Corporation) was added to each tube. The cells were analyzed with a flow cytometer within 30 min. At least three separate tests should be carried out for each cell line.

[2] = test system: COLO-205 colon cancer cells; test: Cell apoptosis, Annexin V and PI double staining, COLO-205; assay type: cell-based
Method: as §1

[3] = test system: normal human foreskin microvascular endothelial cells; test: Cell toxicity on normal endothelial cells; assay type: cell-based; details: 300 ng/ml, 24 hours
Method: (§2) Different from the tumor cells, the normal human foreskin microvascular endothelial cells, 293T kidney cells and primary liver cells were treated with 300 ng/ml of the TRAIL variants or TRAIL for 24 hours.

HT-29 colon cancer cells = test: Anti-tumor efficacy on HT-29 colon cancer model; assay type: in vivo, nude mice; details: TRAIL-insensitive HT-29 model
Method: (§3) 5-6 week-old female nude mice were purchased from Shanghai Experimental Animal Center. The nude mice were injected through their tail veins with 100 μg of a specific antibody, i.e., purified Asialo GM-1 antibody (Wako Chemicals Inc., Japan) that blocks natural killer cells. After 24 hours, the upper right sides of the back of the nude mice were inoculated subcutaneously with 100,000 COLO-205 or HT-29 colon cancer cells. When the tumors reached 70 mm3, random grouping and treatment began. The recombinant TRAIL and its variant proteins were administered intraperitoneally, once daily for 10-14 days. The water-soluble camptothecin CPT-11 (11-hydroxy-camptothecin; Product Name: Irinotecan Hydrochloride Injection; Pharmacia/Upjohn Company's product) was administered intravenously once a week, two times in total. The recombinant proteins and camptothecin were diluted with a phosphate buffer. The tumor size was measured with a caliper, and the calculation formula was: […].
The invention also provides the anti-tumor effect of combined use of TRAIL variant and chemotherapeutic drug CPT-11. Protein injection was carried out by intraperitoneal injection once a day for TRAIL or TRAIL variant, for two weeks total, and intravenous injection once every two days from CPT-11 via tail veins, seven times in total. […]

[4] = test system: COLO-205 colon cancer cells; test: Anti-tumor efficacy on COLO-205 colon cancer model; assay type: in vivo, nude mice
Method: as §3
Two kinds of colon cancer models, COLO-205 and HT-29, were used to test the anti-tumor activity of the TRAIL variant in the athymic nude mice. Because COLO-205 colon cancer cells were sensitive to TRAIL, the therapeutic effect of separate use of TRAIL and TRAIL variant was assessed on this model. On the 8th day after the nude mice were inoculated with tumor cells, administration of drugs through the tail vein began for ten days in succession. The mice were divided into four groups; 100 μg TRAIL variant group, 20 μg TRAIL variant group, 100 μg wild-type TRAIL group, and PBS control group. […] Moreover, the TRAIL variant's inhibition of tumor growth was dose-dependent.
The invention also provides the anti-tumor effect of combined use of TRAIL variant and chemotherapeutic drug CPT-11. Protein injection was carried out by intraperitoneal injection once a day for TRAIL or TRAIL variant, for two weeks total, and intravenous injection once every two days from CPT-11 via tail veins, seven times in total. […] This effect was even better than the higher dose of the TRAIL+CPT-11 combined treatment group ([…]) (89%, P=0.001, 36 days).

[5] = test system: FADD−/− deficient Jurkat cells; test: Apoptosis induction in FADD-/- deficient Jurkat cells
Excerpt: (§4) The fluorescence detection method was used to test the activity of Caspase-8 and Caspase-3 in the Jurkat cells after treatment of TRAIL and TRAIL variants.

[6] = test system: Caspase-8−/− deficient Jurkat cells; test: Apoptosis induction in Caspase-8-/- deficient Jurkat cells
Excerpt: as §4

293T kidney cells = test: Cell toxicity on 293T kidney cells; assay type: cell-based; details: 300 ng/ml, 24 hours
Method: as §2

Jurkat T lymphoma cells = test: Cell apoptosis, Annexin V and PI double staining, Jurkat; assay type: cell-based
Method: as §1

COLO-205 tumor tissues = test: Drug distribution test of 125I-labeled recombinant proteins in tumor tissues; assay type: in vivo; details: COLO-205 tumor-bearing nude mice, 240 minutes after injection
Method: Separate injection from tail veins of 100 μl containing […] of 125I-labeled human TRAIL or its variant protein into the COLO-205 tumor bearing nude mice. 5, 30, 60, 120 and 240 minutes after injection, the tumor tissues were peeled off separately and weighed, and the radiation amount of the tumor tissues were measured with a liquid scintillation counter. The amount of radiation in the tumor tissues is represented by the percentage of measuring radiation quantity per gram of tissues and the injected radiation quantity (% ID/g). The results are the average value of three independent tests.
The recombinant TRAIL and the TRAIL variant protein were labeled with a radioisotope of iodine (^125I) using a labeling kit (Pierce Corp.). The labeling results were as follows: the specific activity of ^125I-TRAIL was 7.86 μCi/μg protein, and the specific activity of ^125I-TRAIL variant was 7.49 μCi/μg protein. After the nude mice were inoculated with COLO-205 colon cancer, and when the tumor size reached 400-500 mm3, they were randomly grouped into wild-type and variant group. Each group included five time points: 5 min, 30 min, 60 min, 120 min and 240 min, and each time point included three animals. […] At each time point, the mice were sacrificed, the tumors were dissected by surgery, and the radiation dose was measured through a liquid scintillation counter. […]

primary liver cells = test: Cell toxicity on primary liver cells; assay type: cell-based; details: 300 ng/ml, 24 hours
Method: as §2

[7] = test system: human foreskin microvascular endothelial cells; test: Cell adhesion assay of human foreskin microvascular endothelial cells on protein-coated wells; assay type: cell-based
Method: The TRAIL and its variant protein are coated on a 96-well PVC plate overnight at 4° C. The coated 96-well plate was rinsed with 0.9% physiological saline, and then blocked for 1 h at 1640 culture medium containing 2% bovine serum albumin, and then rinsed again. After the human foreskin microvascular endothelial cells were digested, washed three times with phosphate buffer and re-suspended into the complete RPMI1640 medium, it was then added to the 96-well plate coated with TRAIL and its variant (40,000 cell per well). After the cells were incubated for 1.5 hours in an incubator containing 5% carbon dioxide, they were washed three times with physiological saline to remove the non-adherent cells. The adherent cells were fixed for 30 min with phosphate buffer solution (pH 7.3) containing 4% formalin and 2% sucrose, and then stained with 0.5% crystal violet. The fixed stained cells were rinsed several times, then dissolved with […] DMSO to test the absorbance values at 540 nm. All the tests should be carried out at least three times independently.

[8] = test system: human foreskin microvascular endothelial cells; test: Binding assay of fluorescein-labeled TRAIL and its variant with endothelial cells (flow cytometer); details: fluorescein-labeled protein, flow cytometry
Method: The TRAIL and its variant were labeled with fluorescein (Sigma company), and the labeled proteins were separated from free fluorescein through a Sephadex-G25 size exclusion column. After human foreskin microvascular endothelial cells were digested by trypsin, washed twice with ice-cold phosphate buffer containing 2% fetal calf serum, and then re-suspended, they were added with 1 μg of labeled protein for incubation for 1 h at 4° C. The fluorescent-labeled bovine serum albumin was used as a control of the test. After being washed three times, the binding capacity of the stained cells was analyzed with a flow cytometer (Becton Dickinson Company).

Row | Molecule | medial lethal dose [1] [ng/mL] | medial lethal dose ([2]; COLO-205) [ng/mL] | apoptosis rate ([2]; COLO-205 cells, 2.43 ng/ml) [%] | cell toxicity [3] | dose required, relative to TRAIL variant (HT-29 colon cancer cells) | tumor inhibition rate ([4]; COLO-205, 90 μg/day/each combined with CPT-11 6.25 mg/kg/each, 36 days) [%] | tumor inhibition rate ([4]; COLO-205, 100 μg, used alone, ten days in succession, 37th day, vs PBS control) [%] | mice whose tumors disappeared, among ten animals ([4]; COLO-205, 270 μg/day/each + CPT-11 combined treatment) [mice] | tumor inhibition effect ([4]; COLO-205, 270 μg/day/each combined with CPT-11 6.25 mg/kg/each, 36 days) [%] | dose required for the same therapeutic effect, relative to TRAIL variant ([4]; COLO-205 models, combined treatment program with CPT-11) | induction of cell apoptosis [5] | induction of cell apoptosis [6] | cell toxicity (293T kidney cells) | medial lethal dose (Jurkat T lymphoma cells) [ng/mL] | distribution in the tumor tissues (COLO-205 tumor tissues) | cell toxicity (primary liver cells) | reduction by free protein of endothelial cells adhered to microplates coated with RGD-L-TRAIL (competitive test) ([7]; free protein added to plates coated with TRAIL variant protein) | adhesion of human foreskin microvascular endothelial cells to culture plate wells coated with the protein ([7]; protein coated on 96-well plate, cells incubated 1.5 hours) | binding capacity with human foreskin microvascular endothelial cells [8] | tumor growth inhibition (in words) ([4]; COLO-205, individual injection of low dose CPT-11 (6.25 mg/kg/each), vs PBS control)
1 | TRAIL: recombinant wild-type human tumor necrosis factor-related apoptosis-inducing ligand, comparator | 2.3 | 3.5 | 43.7 | No obvious cell toxicity | at least 2 times | 67.8 | 37 | 6 | 89 | 3-9 times | no induced cell apoptosis | no induced cell apoptosis | No obvious cell toxicity | 6.7 | difficult to detect | No obvious cell toxicity | has no such ability | do not adhere | very weak | –
2 | CCc1c2c(nc3ccc(OC(=O)N4CCC(N5CCCCC5)CC4)cc13)-c1cc3c(c(=O)n1C2)COC(=O)[C@]3(O)CC [CPT-11, reference compound] | – | – | – | – | – | – | – | – | – | – | – | – | – | – | – | – | – | – | – | slightly inhibit the tumor growth

— patent publication US9340596B2, “Fusion protein comprising tumor necrosis factor related apoptosis inducing ligand and integrin ligand and use thereof” (NANJING UNIVERSITY, priority 2007, dated 2016)
